Data published in ChEMBL document CHEMBL5053553, “Structure-activity relationship around PI-2620 highlights the importance of the nitrogen atom position in the tricyclic core” (Bioorg Med Chem, 2021).

Legend:
[1] = target: T1, Amine oxidase [flavin-containing] A (Mus musculus, UniProt Q64133); experiment: Displacement of [18F]-FEH from MAO-A in mouse brain homogenate incubated for 60 mins by imaging analysis; format: tissue-based
T1 sequence (Q64133 whole entry): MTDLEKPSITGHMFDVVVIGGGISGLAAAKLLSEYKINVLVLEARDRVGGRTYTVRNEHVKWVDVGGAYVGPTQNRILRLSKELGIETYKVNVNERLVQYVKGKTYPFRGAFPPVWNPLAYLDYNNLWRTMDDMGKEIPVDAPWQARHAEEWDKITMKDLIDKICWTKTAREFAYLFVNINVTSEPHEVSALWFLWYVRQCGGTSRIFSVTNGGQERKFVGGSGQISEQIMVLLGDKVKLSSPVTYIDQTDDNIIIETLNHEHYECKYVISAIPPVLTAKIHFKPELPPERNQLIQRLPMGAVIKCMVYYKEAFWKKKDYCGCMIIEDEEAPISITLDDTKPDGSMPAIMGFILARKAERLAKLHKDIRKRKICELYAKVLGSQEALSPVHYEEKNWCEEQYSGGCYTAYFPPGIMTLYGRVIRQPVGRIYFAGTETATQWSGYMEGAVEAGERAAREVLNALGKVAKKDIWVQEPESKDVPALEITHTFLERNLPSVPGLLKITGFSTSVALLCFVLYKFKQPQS

[2] = target: Microtubule-associated protein tau (Homo sapiens, UniProt P10636); experiment: Displacement of [3H]PI-2620 from Tau in human brain homogenate incubated for 60 mins by radioligand binding assay; format: tissue-based
Chain of Microtubule-associated protein tau (P10636 whole entry): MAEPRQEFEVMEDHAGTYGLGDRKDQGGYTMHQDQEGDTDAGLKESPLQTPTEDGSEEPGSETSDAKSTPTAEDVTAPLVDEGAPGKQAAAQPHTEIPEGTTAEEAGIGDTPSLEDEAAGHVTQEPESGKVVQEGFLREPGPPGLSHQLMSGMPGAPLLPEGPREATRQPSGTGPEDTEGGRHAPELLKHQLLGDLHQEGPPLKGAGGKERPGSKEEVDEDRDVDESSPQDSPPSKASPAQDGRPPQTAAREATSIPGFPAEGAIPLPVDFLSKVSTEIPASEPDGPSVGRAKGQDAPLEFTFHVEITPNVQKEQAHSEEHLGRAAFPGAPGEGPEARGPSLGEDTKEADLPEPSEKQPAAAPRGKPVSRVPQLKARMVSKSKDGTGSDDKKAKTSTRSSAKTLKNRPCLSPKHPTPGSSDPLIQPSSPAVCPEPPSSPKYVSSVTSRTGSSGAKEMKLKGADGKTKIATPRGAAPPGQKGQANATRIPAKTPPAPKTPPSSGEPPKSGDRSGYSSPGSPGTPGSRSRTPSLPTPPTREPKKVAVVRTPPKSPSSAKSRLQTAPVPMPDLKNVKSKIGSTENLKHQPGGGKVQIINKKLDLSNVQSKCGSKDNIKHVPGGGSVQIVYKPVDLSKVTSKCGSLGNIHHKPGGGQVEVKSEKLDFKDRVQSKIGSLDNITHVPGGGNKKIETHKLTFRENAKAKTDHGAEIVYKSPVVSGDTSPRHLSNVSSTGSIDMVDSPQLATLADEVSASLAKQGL

Structure (SMILES)	IC50 [1] [µM]	IC50 [2] [µM]
Fc1cc(-c2cc3[nH]c4ccncc4c3cn2)ccn1	> 1	0.082
Fc1cc(-c2ccc3c(n2)[nH]c2cccnc23)ccn1	–	0.26
Fc1cc(-c2ccc3c(n2)[nH]c2ncccc23)ccn1	–	0.31
Fc1ncccc1-c1ccc2c(n1)[nH]c1ccncc12	> 1	0.0155
Fc1ncccc1-c1cnc2c(c1)[nH]c1ccncc12	> 1	0.344
Fc1ncccc1-c1ccc2c(c1)[nH]c1ccncc12	0.0078	0.0035
Fc1ncccc1-c1ccc2c(n1)[nH]c1cnccc12	–	0.07
Fc1cc(-c2ccc3c(c2)[nH]c2ccncc23)ccn1	–	0.0031
Fc1cc(-c2ccc3c(n2)[nH]c2cnccc23)ccn1	–	0.036
Fc1cc(-c2ccc3c(n2)[nH]c2ccncc23)ccn1	> 1	0.0049
Fc1cc(-c2cnc3c(c2)[nH]c2ccncc23)ccn1	> 1	0.116
Fc1cc(-c2nc3[nH]c4ccncc4c3s2)ccn1	> 1	0.018
Fc1ncccc1-c1ccc2c(n1)[nH]c1ncccc12	–	> 1
Fc1ncccc1-c1cc2[nH]c3ccncc3c2cn1	> 1	0.732
Fc1ncccc1-c1ccc2c(n1)[nH]c1cccnc12	–	0.559
